{"source": "patent US8524465B2", "about": "“Agonists of bitter taste receptors and uses thereof” (Deutsches Institut fuer Ernaehrungsforschung …, priority 2007, dated 2013)", "key": {"[1]": {"target": "T1, TAS2R14 (Homo sapiens, UniProt Q9NYV8)", "T1 construct": "expressed in transfected cells; host or cells: HEK-293T cells stably expressing the chimeric G-protein subunit Gα16gust44", "T1 sequence (Q9NYV8 1-317)": "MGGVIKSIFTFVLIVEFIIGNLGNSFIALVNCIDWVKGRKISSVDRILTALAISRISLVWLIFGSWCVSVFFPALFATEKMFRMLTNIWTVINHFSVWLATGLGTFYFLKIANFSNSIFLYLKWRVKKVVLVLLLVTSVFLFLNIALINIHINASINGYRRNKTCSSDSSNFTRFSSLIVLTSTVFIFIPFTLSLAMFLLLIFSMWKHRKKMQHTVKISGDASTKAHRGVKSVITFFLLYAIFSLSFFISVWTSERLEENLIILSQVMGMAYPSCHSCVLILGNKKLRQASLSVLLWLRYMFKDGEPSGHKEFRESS", "experiment": "FLIPR calcium imaging, HEK-293T Gα16gust44 cells expressing TAS2R14", "type": "cell-based", "conditions": "for molar range at which TAS2R14 responded to the bitter substance: calcium response, transfected HEK-293T Gα16gust44 cells, FLIPR", "protocol": "(§1) Tastants (Sigma-Aldrich, Taufkirchen, Germany) were dissolved and administered in the following (in mM): 130 NaCl, 5 KCl, 10 HEPES, 2 CaCl2, and 10 mM glucose, pH7.4. Data were collected from 1-2 independent experiments performed at least in triplicate and processed with SigmaPlot (SPSS, Chicago, Ill.). For dose-response curve calculation, the peak fluorescence responses after compound addition were corrected for and normalized to background fluorescence (ΔF/F=(F−F0)/F0), and baseline noise was subtracted.\n(§2) All 25 human bitter taste receptors were challenged with 100 μM artemorin (FIG. 1) in a FLIPR calcium imaging experiment."}, "[2]": {"test_system": "mock-transfected cells", "conditions": "1 mM PROP", "protocol": "as §1, §2"}, "[3]": {"target": "T2, TAS2R4 (Homo sapiens, UniProt Q9NYW5)", "T2 construct": "expressed in transfected cells; host or cells: HEK-293T cells stably expressing the chimeric G-protein subunit Gα16gust44", "T2 sequence (Q9NYW5 1-299)": "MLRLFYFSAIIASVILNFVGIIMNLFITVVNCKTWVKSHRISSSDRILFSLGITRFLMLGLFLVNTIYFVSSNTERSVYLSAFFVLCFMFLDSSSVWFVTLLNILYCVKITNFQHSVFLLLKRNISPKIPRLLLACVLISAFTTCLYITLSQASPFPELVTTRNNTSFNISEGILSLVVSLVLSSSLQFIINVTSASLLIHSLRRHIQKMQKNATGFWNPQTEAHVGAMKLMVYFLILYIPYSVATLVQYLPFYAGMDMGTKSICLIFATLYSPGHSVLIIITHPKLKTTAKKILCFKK", "experiment": "FLIPR calcium imaging, HEK-293T Gα16gust44 cells expressing TAS2R4", "type": "cell-based", "protocol": "as §1, §2"}, "[4]": {"target": "T3, TAS2R10 (Homo sapiens, UniProt Q9NYW0, T156M)", "T3 construct": "expressed in transfected cells; host or cells: HEK-293T cells stably expressing the chimeric G-protein subunit Gα16gust44", "T3 sequence (Q9NYW0 1-307 T156M)": "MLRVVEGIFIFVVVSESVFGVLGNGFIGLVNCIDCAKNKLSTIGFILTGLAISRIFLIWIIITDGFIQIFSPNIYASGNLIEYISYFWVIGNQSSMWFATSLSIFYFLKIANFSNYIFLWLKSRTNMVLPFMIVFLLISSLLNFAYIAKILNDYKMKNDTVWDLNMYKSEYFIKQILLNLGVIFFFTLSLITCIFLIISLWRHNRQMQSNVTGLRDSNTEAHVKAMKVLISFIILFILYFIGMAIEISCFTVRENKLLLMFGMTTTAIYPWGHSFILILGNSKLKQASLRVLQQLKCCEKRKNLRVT", "experiment": "FLIPR calcium imaging, HEK-293T Gα16gust44 cells expressing TAS2R10", "type": "cell-based", "protocol": "as §1, §2"}, "[5]": {"conditions": "challenged with 100 μM artemorin, FIG. 2"}}, "data": [{"compound": "CCNC(=S)NCC", "note": "[N,N′-Diethylthiourea]", "values": [{"measurement": "molar range at which TAS2R14 responded to the bitter substance", "setting": "[1]", "result": 10, "unit": "mM"}]}, {"compound": "CCCc1cc(=O)[nH]c(=S)[nH]1", "note": "[propylthiouracil]", "values": [{"measurement": "signals of mock-transfected cells", "setting": "[2]", "result": "elicits endogenous signals of mock-transfected cells"}, {"measurement": "calcium responses in TAS2R4-expressing cells", "setting": "[3]; result in words", "result": "very small (somewhat questionable) and no dose-dependency can be shown"}]}, {"compound": "C=C1C(=O)O[C@@H]2[C@H]3C(C)=CC[C@@]34O[C@@]4(C)CC[C@@H]12", "note": "[Arglabin]", "values": [{"measurement": "molar range at which TAS2R10 responded to the bitter substance", "setting": "[4]; calcium response, transfected HEK-293T Gα16gust44 cells, FLIPR", "result": 0.1, "unit": "mM"}, {"measurement": "molar range at which TAS2R14 responded to the bitter substance", "setting": "[1]", "result": 0.1, "unit": "mM"}]}, {"compound": "C=C1CC[C@H]2C(=C)C(=O)O[C@@H]2/C=C(\\C)CC[C@H]1O", "note": "[artemorin]", "values": [{"measurement": "receptor response in FLIPR calcium imaging experiment (TAS2R10)", "setting": "[4]; [5]", "result": "responded to artemorin in a dose-dependent manner"}, {"measurement": "receptor response in FLIPR calcium imaging experiment (TAS2R14)", "setting": "[1]; [5]", "result": "responded to artemorin in a dose-dependent manner"}, {"measurement": "receptor response in FLIPR calcium imaging experiment (TAS2R4)", "setting": "[3]; [5]", "result": "responded to artemorin in a dose-dependent manner"}]}]}
